Experimental data as given in PMC9582194, “The effect of helix-inducing constraints and downsizing upon a transcription block survival-derived functional cJun antagonist” (Cell Reports. Physical Science, 2022).
Positions of bridges follow the written chain, without caps; N, C: chain ends. Residues, ends and D or L forms follow the SMILES beside them. No end group written: not given here.

B1: HW3 (peptide)
peptide: Ac-LEKEAEELVVEEDVLEEEIEQLEERNYALRKEIEDLQKQLEKL-NH2
notes: truncation NΔ17 CΔ3 of HW1; source: synthetic peptide (Fmoc SPPS, RP-HPLC purified)
B2: HW27 (peptide)
peptide: Ac-EAEELVVEEDVLEEEIEQLEEKNKALKDEIEDLQKQY-NH2
modifications: lactam 24-28
SMILES: CC[C@H](C)[C@H](NC(=O)[C@H](CCC(=O)O)NC(=O)[C@@H]1CC(=O)NCCCC[C@H](NC(=O)[C@H](CC(N)=O)NC(=O)[C@H](CCCCN)NC(=O)[C@H](CCC(=O)O)NC(=O)[C@H](CCC(=O)O)NC(=O)[C@H](CC(C)C)NC(=O)[C@H](CCC(N)=O)NC(=O)[C@H](CCC(=O)O)NC(=O)[C@@H](NC(=O)[C@H](CCC(=O)O)NC(=O)[C@H](CCC(=O)O)NC(=O)[C@H](CCC(=O)O)NC(=O)[C@H](CC(C)C)NC(=O)[C@@H](NC(=O)[C@H](CC(=O)O)NC(=O)[C@H](CCC(=O)O)NC(=O)[C@H](CCC(=O)O)NC(=O)[C@@H](NC(=O)[C@@H](NC(=O)[C@H](CC(C)C)NC(=O)[C@H](CCC(=O)O)NC(=O)[C@H](CCC(=O)O)NC(=O)[C@H](C)NC(=O)[C@H](CCC(=O)O)NC(C)=O)C(C)C)C(C)C)C(C)C)[C@@H](C)CC)C(=O)N[C@@H](C)C(=O)N[C@@H](CC(C)C)C(=O)N[C@@H](CCCCN)C(=O)N1)C(=O)N[C@@H](CCC(=O)O)C(=O)N[C@@H](CC(=O)O)C(=O)N[C@@H](CC(C)C)C(=O)N[C@@H](CCC(N)=O)C(=O)N[C@@H](CCCCN)C(=O)N[C@@H](CCC(N)=O)C(=O)N[C@@H](Cc1ccc(O)cc1)C(N)=O
notes: cyclized form of the pair HW26/HW27; NΔ20 CΔ7; source: synthetic peptide (Fmoc SPPS, on-resin lactamization, RP-HPLC purified)
B3: HW6 (peptide)
peptide: EDVLEEEIEQLEERNYALRKEIEDLQKQLEKLGAP-NH2
notes: truncation NΔ28 of HW1: the leucine zipper (LZ) only; also called LZ domain of HW1; source: synthetic peptide (Fmoc SPPS, RP-HPLC purified)
B4: HW9 (peptide)
peptide: Ac-EAEELVVEEDVLEEEIEQLEERNYALRKEIEDL-NH2
notes: truncation NΔ20 CΔ10 of HW1; source: synthetic peptide (Fmoc SPPS, RP-HPLC purified)

Key:
cJun = biological target: T1, cJun (Homo sapiens, UniProt P05412); assay: CD thermal denaturation of peptide-cJun heterodimers (Tm); type: binding; settings: for ΔTm of cJun heterodimer due to lactamization: cyclized versus its linear (non-lactamized) counterpart; for Tm of peptide-cJun heterodimer: CD ellipticity at 222 nm, 1-90 °C, peptide (5 μM)/cJun (5 μM), 20 mM potassium phosphate, 150 mM potassium fluoride, 2 mM TCEP pH 7.4, two-state fit, duplicate experiments, ± one SD
T1 construct: The same 60 amino acid cJun construct, encompassing the entire bZIP domain, was used for all experiments
Procedure: (§1) The precise nature of the interaction between the cJun DBD and the rationally designed acidic domain of HW1 is unknown. HW1 was, therefore, iteratively truncated from the N terminus (HW2–6) to investigate the effect on cJun binding and cJun/TRE DNA antagonism (Table 1). Peptide fraction helicity (fH) was determined by quantifying the circular dichroism (CD) signal at 222 nm of peptide-only samples (Figure S1). Thermal denaturation experiments were then used to determine the melting temperature (Tm) of peptide-cJun heterodimers, which serves as an approximate measure of target engagement. CD was also used to investigate the functional activity of peptides in antagonizing the cJun/TRE DNA interaction. […] This provides a clear and direct measurement of the proportion of DNA bound to cJun. As antagonist peptide concentration was increased, the peak shifted to overlay with that of free TRE-DNA (Figure S4). For each peptide, the data were fit to a Hill equation to determine half-maximal inhibitory concentration (IC50) values, specific to these assay conditions, providing a clear comparative measure of antagonism. The same 60 amino acid cJun construct, encompassing the entire bZIP domain, was used for all experiments regardless of antagonist peptide length.
Figure 2 Iterative N-terminal truncation of HingeW reduces cJun binding and antagonism (A) Thermal denaturation profiles for iteratively truncated peptide (5 μM)/cJun (5 μM) heterodimer samples. (B) CD antagonism data produced by monitoring the shift in a DNA specific peak to provide a direct readout of cJun-DNA binding. Peptides are added at the indicated concentrations to a pre-incubated mixture of cJun (20 μM) and TRE DNA (5 μM). Data points were averaged from triplicate experiments, and error bars indicate one SD. The data were fitted to a Hill equation to determine IC50 values. Some higher peptide concentration data points for HW6 and HW9 are not shown in this plot for clarity.

[1] = Peptide fraction helicity by CD at 222 nm, peptide-only samples; type: physicochemical; settings: for fH, peptide fraction helicity: CD signal at 222 nm of peptide-only samples, pH 7.4 phosphate/KF/TCEP buffer, duplicate experiments
Procedure: as §1

[2] = biological target: T2, cJun (60 amino acid construct encompassing the entire bZIP domain) (UniProt P05412 252-315); assay: cell-based or functional assay
[3] = biological target: T2, cJun (60 amino acid construct …); assay: CD thermal denaturation; peptide (5 μM) with cJun (5 μM); ellipticity at 222 nm, 1°C to 90°C; 20 mM potassium phosphate, 150 mM potassium fluoride, 2 mM TCEP, pH 7.4; two-state fit gives the Tm of the peptide-cJun heterodimer; duplicate experiments; settings: both partners purified

T1 sequence (P05412 252-315 limits assumed): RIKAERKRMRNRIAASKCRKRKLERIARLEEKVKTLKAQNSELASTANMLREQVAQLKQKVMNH
T2 sequence (P05412 252-315): as the sequence (P05412 252-315 limits assumed) above

Row | Molecule | Tm of peptide-cJun heterodimer (cJun) | fH, peptide fraction helicity [1] | other results
1 | CC[C@H](C)[C@H](NC(=O)[C@H](CCC(=O)O)NC(=O)[C@H](CCCCN)NC(=O)[C@H](CCCNC(=N)N)NC(=O)[C@H](CC(C)C)NC(=O)[C@H](C)NC(=O)[C@H](Cc1ccc(O)cc1)NC(=O)[C@H](CC(N)=O)NC(=O)[C@H](CCCNC(=N)N)NC(=O)[C@H](CCC(=O)O)NC(=O)[C@H](CCC(=O)O)NC(=O)[C@H](CC(C)C)NC(=O)[C@H](CCC(N)=O)NC(=O)[C@H](CCC(=O)O)NC(=O)[C@@H](NC(=O)[C@H](CCC(=O)O)NC(=O)[C@H](CCC(=O)O)NC(=O)[C@H](CCC(=O)O)NC(=O)[C@H](CC(C)C)NC(=O)[C@@H](NC(=O)[C@H](CC(=O)O)NC(=O)[C@H](CCC(=O)O)NC(=O)[C@H](CCC(=O)O)NC(=O)[C@@H]1CC(=O)NCCCC[C@H](NC(=O)[C@H](C)NC(=O)[C@H](CCC(=O)O)NC(C)=O)C(=O)N[C@@H](CCC(=O)O)C(=O)N[C@@H](CC(C)C)C(=O)N[C@@H](C(C)C)C(=O)N1)C(C)C)[C@@H](C)CC)C(=O)N[C@@H](CCC(=O)O)C(=O)N[C@@H](CC(=O)O)C(=O)N[C@@H](CC(C)C)C(=O)N[C@@H](CCC(N)=O)C(=O)N[C@@H](CCCCN)C(=O)N[C@@H](CCC(N)=O)C(N)=O [HW21] (Ac-EAKELVDEEDVLEEEIEQLEERNYALRKEIEDLQKQ-NH2; lactam 3-7) | – | – | ΔTm of cJun heterodimer due to lactamization (cJun): ~2 °C
2 | EDVLEEEIEQLEERNYALRKEIEDLQKQLEKLGAP-NH2 (C-terminus assumed) [HW6] | 55.1 ± 1.1 °C | 38.0% | –
3 | Ac-EAEELVVEEDVLEEEIEQLEEKNKALKDEIEDLQKQY-NH2 [HW26] | 56.2 ± 1.3 °C | 36.0% | –
4 | CC[C@H](C)[C@H](NC(=O)[C@H](CCC(=O)O)NC(=O)[C@H](CCCCN)NC(=O)[C@H](CCCNC(=N)N)NC(=O)[C@H](CC(C)C)NC(=O)[C@H](C)NC(=O)[C@H](Cc1ccc(O)cc1)NC(=O)[C@H](CC(N)=O)NC(=O)[C@H](CCCNC(=N)N)NC(=O)[C@H](CCC(=O)O)NC(=O)[C@H](CCC(=O)O)NC(=O)[C@H](CC(C)C)NC(=O)[C@H](CCC(N)=O)NC(=O)[C@H](CCC(=O)O)NC(=O)[C@@H](NC(=O)[C@H](CCC(=O)O)NC(=O)[C@@H]1CC(=O)NCCCC[C@H](NC(=O)[C@H](CCC(=O)O)NC(=O)[C@H](CCC(=O)O)NC(=O)[C@@H](NC(=O)[C@@H](NC(=O)[C@H](CC(C)C)NC(=O)[C@H](CCC(=O)O)NC(=O)[C@H](CCC(=O)O)NC(=O)[C@H](C)NC(=O)[C@H](CCC(=O)O)NC(C)=O)C(C)C)C(C)C)C(=O)N[C@@H](C(C)C)C(=O)N[C@@H](CC(C)C)C(=O)N[C@@H](CCC(=O)O)C(=O)N1)[C@@H](C)CC)C(=O)N[C@@H](CCC(=O)O)C(=O)N[C@@H](CC(=O)O)C(=O)N[C@@H](CC(C)C)C(=O)N[C@@H](CCC(N)=O)C(=O)N[C@@H](CCCCN)C(=O)N[C@@H](CCC(N)=O)C(N)=O [HW23] (Ac-EAEELVVEEKVLEDEIEQLEERNYALRKEIEDLQKQ-NH2; lactam 10-14) | – | – | ΔTm of cJun heterodimer due to lactamization (cJun): ~9 °C
5 | Ac-EAKELVDEEDVLEEEIEQLEERNYALRKEIEDLQKQ-NH2 [HW20] | 57.5 ± 1.1 °C | 36.9% | –
6 | Ac-LEKEAEELVVEEDVLEEEIEQLEERNYALRKEIEDLQKQLEKL-NH2 [HW3] | 67.9 ± 0.9 °C | 38.3% | –
7 | CC[C@H](C)[C@H](NC(=O)[C@H](CCC(=O)O)NC(=O)[C@H](CCCCN)NC(=O)[C@H](CCCNC(=N)N)NC(=O)[C@H](CC(C)C)NC(=O)[C@H](C)NC(=O)[C@H](Cc1ccc(O)cc1)NC(=O)[C@H](CC(N)=O)NC(=O)[C@H](CCCNC(=N)N)NC(=O)[C@H](CCC(=O)O)NC(=O)[C@H](CCC(=O)O)NC(=O)[C@H](CC(C)C)NC(=O)[C@H](CCC(N)=O)NC(=O)[C@H](CCC(=O)O)NC(=O)[C@@H](NC(=O)[C@H](CCC(=O)O)NC(=O)[C@H](CCC(=O)O)NC(=O)[C@H](CCC(=O)O)NC(=O)[C@H](CC(C)C)NC(=O)[C@@H](NC(=O)[C@H](CC(=O)O)NC(=O)[C@H](CCC(=O)O)NC(=O)[C@H](CCC(=O)O)NC(=O)[C@@H](NC(=O)[C@@H](NC(=O)[C@H](CC(C)C)NC(=O)[C@@H]1CC(=O)NCCCC[C@H](NC(C)=O)C(=O)N[C@@H](CCC(=O)O)C(=O)N[C@@H](C)C(=O)N[C@@H](CCC(=O)O)C(=O)N1)C(C)C)C(C)C)C(C)C)[C@@H](C)CC)C(=O)N[C@@H](CCCCN)C(=O)N[C@@H](CC(=O)O)C(=O)N[C@@H](CC(C)C)C(=O)N[C@@H](CCC(N)=O)C(=O)N[C@@H](CC(=O)O)C(=O)N[C@@H](CCC(N)=O)C(N)=O [HW19] (Ac-KEAEDLVVEEDVLEEEIEQLEERNYALRKEIKDLQDQ-NH2; lactam 1-5 (inferred)) | 58.5 ± 1.0 °C | 40.1% | change in fH due to lactamization ([1]; cyclized versus its linear counterpart): ~1%
8 | Ac-EAEELVVEEDVLEEEIKQLEDRNYALRKEIEDLQKQ-NH2 [HW24] | 55.5 ± 1.7 °C | 37.0% | –
9 | Ac-EAEELVVEEDVLEEEIEQLEERNYALRKEIKDLQDQ-NH2 [HW28] | 55.6 ± 1.2 °C | 35.0% | –
10 | Ac-KEAEDLVVEEDVLEEEIEQLEERNYALRKEIKDLQDQ-NH2 [HW18] | 56.5 ± 1.6 °C | 38.7% | –
11 | Ac-EAEELVVEEDVLEEEIEQLEERNYALRKEIEDLQ-NH2 [HW16] | 53.8 ± 5.3 °C | 31.2% | –
12 | Ac-LARENEELEKEAEELVVEEDVLEEEIEQLEERNYALRKEIEDLQKQLEKL-NH2 [HW2] | 68.5 ± 1.1 °C | 32.8% | –
13 | Ac-LVVEEDVLEEEIEQLEEKNKALKDEIEDLQKQLEKLY-NH2 [HW10] | 64.3 ± 1.3 °C | 45.6% | –
14 | B1 | – | – | IC50 CD: peptide added to pre-incubated cJun (20 μM) and TRE DNA (5 μM); blocks cJun/TRE DNA binding [2]: 33.7 µM; Tm of the peptide-cJun heterodimer [3]: 67.9 °C
15 | B2 | – | – | IC50 CD: peptide added to pre-incubated cJun (20 μM) and TRE DNA (5 μM); blocks cJun/TRE DNA binding [2]: 94.1 µM; Tm of the peptide-cJun heterodimer [3]: 58.9 °C
16 | B3 | – | – | IC50 CD: peptide added to pre-incubated cJun (20 μM) and TRE DNA (5 μM); blocks cJun/TRE DNA binding [2]: 130 µM; Tm of the peptide-cJun heterodimer [3]: 55.1 °C
17 | B4 | – | – | IC50 CD: peptide added to pre-incubated cJun (20 μM) and TRE DNA (5 μM); blocks cJun/TRE DNA binding [2]: 1210 µM; Tm of the peptide-cJun heterodimer [3]: 44.8 °C
